The supplement of paper PMC8882468

What was measured:
Experiment in all cases: CTG-3D luminescence at 96 h relative to day-0 seeding control (ratio to day 0); higher = more growth / less cytotoxicity; PDxO 3D drug screen, 96 h, CTG-3D normalised to day-0 seeding control.
HCI-025 = system: HCI-025 (organoid from a breast cancer xenograft)
HCI-010 = system: HCI-010 (organoid from a breast cancer xenograft)
HCI-008 = system: HCI-008 (organoid from a HER2-enriched breast cancer xenograft)
HCI-019 = system: HCI-019 (organoid from a triple-negative breast cancer xenograft)

CN(Cc1cnc2nc(N)nc(N)c2n1)c1ccc(C(=O)N[C@@H](CCC(=O)O)C(=O)O)cc1 [methotrexate]
CTG-3D luminescence at 96 h
Settings	12.5 pM	0.00025 µM	0.005 µM	0.1 µM	1 µM	10 µM	100 µM	625 fM
HCI-008, days in culture: 228	1.82	1.9	1.53	1.98	1.97	1.82	1.2	2.01
HCI-008, days in culture: 244	1.4	1.83	1.93	2.13	1.59	1.93	1.66	2.31
HCI-010, days in culture: 52	2.12	2.41	2.51	2.48	2.58	2.52	2.52	2.58
HCI-010, days in culture: 65	1.6	1.77	1.79	1.86	1.86	1.72	1.46	1.8
HCI-010, days in culture: 103	3.42	3.7	4.03	2.39	2.36	2.1	1.84	3.19
HCI-019, days in culture: 110	2.05	1.69	1.69	–	–	–	–	–
HCI-019, days in culture: 131	2.79	3.21	2.83	–	–	–	–	–
HCI-019, days in culture: 152	2.67	2.23	–	–	–	–	–	–
HCI-025, days in culture: 172	2.75	2.07	3.51	1.47	1.98	1.22	1.02	2.55
HCI-025, days in culture: 209	1.86	1.56	2.06	0.982	1.3	0.947	0.76	1.49
HCI-025, days in culture: 218	1.83	2	2	1.06	0.978	1.26	0.754	1.76
